Paper PMC5620609 (Pharmaceuticals, 2017)

What was measured:
HS 578T = assay: NCI 60 cell line panel: HS 578T; format: cell-based, human; conditions: Breast cancer, TP53 null/mutant
Description: (§1) Details of the NCI 60 One Dose Screen are well known and available online.

[1] = system: TP53 WT colon cancer cell line LoVo; assay: In vitro growth inhibition (CellTiter-Glo), LoVo; format: cell-based; conditions: Homo sapiens, 72 h exposure
Protocol: Further testing was performed in colon cancer cell lines.
Cells were grown in an appropriate medium for the cell line of interest; 96 well plates of each cell line were seeded with 5000 cells per well and left overnight. Drug exposed cells were incubated at 37 °C for 72 h. At the end of the 72 h exposure period, plates were removed for the CellTiter-Glo® assay. Luminescence was recorded on a Synergy 4.0. Assays were performed in triplicate.

HL-60 = assay: NCI 60 cell line panel: HL-60; format: cell-based, human; conditions: Leukemia, TP53 null/mutant
Description: as §1

LOX IMVI = assay: NCI 60 cell line panel: LOX IMVI; format: cell-based, human; conditions: Melanoma, TP53 wild type
Description: as §1

IGROV-1 = assay: NCI 60 cell line panel: IGROV-1; format: cell-based, human; conditions: Ovarian cancer, TP53 null/mutant
Description: as §1

UACC-257 = assay: NCI 60 cell line panel: UACC-257; format: cell-based, human; conditions: Melanoma, TP53 wild type
Description: as §1

RXF 393 = assay: NCI 60 cell line panel: RXF 393; format: cell-based, human; conditions: Renal cancer, TP53 null/mutant
Description: as §1

OVCAR-4 = assay: NCI 60 cell line panel: OVCAR-4; format: cell-based, human; conditions: Ovarian cancer, TP53 null/mutant
Description: as §1

DNMT1 = DNMT1 (Homo sapiens, UniProt P26358); assay: Western blot for DNMT1, THP-1 cells; format: cell-based; set-up: cytoplasmic and nuclear protein extracts from cells; endogenous in cells; host or cells: THP-1; conditions: 0.1 and 0.2 µM, 6 days after exposure
Sequence of DNMT1 (P26358 whole entry): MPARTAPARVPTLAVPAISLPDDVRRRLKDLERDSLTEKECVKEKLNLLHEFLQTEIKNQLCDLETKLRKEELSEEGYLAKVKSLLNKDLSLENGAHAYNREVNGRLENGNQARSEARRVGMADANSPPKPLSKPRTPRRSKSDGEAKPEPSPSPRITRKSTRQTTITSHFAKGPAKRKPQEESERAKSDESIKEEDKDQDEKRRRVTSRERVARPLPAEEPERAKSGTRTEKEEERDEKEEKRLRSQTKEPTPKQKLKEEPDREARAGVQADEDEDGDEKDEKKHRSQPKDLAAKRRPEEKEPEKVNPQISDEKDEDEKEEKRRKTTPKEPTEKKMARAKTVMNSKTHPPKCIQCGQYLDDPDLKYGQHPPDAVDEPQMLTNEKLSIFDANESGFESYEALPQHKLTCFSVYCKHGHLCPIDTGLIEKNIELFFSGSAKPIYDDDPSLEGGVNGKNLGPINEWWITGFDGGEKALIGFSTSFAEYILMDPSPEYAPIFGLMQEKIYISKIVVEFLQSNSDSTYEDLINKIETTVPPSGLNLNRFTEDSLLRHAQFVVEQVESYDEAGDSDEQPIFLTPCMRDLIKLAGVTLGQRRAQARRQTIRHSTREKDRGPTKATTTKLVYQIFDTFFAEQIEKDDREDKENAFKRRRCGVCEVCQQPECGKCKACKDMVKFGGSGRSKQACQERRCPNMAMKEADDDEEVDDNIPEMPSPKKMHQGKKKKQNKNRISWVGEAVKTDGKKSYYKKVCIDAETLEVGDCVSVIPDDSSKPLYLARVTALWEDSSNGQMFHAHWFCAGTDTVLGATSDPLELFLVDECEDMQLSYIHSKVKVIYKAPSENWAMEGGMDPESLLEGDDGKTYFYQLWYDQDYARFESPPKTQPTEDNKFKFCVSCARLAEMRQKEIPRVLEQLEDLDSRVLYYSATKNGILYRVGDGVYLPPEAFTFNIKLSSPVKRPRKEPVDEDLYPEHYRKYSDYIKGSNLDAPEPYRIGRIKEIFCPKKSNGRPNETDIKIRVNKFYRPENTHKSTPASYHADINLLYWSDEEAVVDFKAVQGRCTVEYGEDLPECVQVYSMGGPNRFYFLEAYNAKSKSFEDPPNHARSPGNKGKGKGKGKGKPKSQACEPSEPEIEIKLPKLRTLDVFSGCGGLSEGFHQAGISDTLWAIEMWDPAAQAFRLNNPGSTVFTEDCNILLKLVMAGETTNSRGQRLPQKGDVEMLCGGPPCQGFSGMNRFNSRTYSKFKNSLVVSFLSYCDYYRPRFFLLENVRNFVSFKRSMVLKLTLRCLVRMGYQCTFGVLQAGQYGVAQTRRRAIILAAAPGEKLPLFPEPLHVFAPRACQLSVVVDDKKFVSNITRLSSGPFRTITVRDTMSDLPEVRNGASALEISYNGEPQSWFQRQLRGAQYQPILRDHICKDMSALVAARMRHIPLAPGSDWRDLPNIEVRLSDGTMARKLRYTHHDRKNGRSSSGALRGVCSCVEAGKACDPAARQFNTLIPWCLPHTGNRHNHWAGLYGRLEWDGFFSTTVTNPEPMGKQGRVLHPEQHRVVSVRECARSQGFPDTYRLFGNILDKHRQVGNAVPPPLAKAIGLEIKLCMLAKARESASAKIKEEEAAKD
Protocol: Cells were co-stained with Annexin-V and PI on day 2 and analyzed by flow cytometry.
Approximately 100 µg of cytoplasmic and nuclear protein extracts from cells, together with molecular weight markers, were subjected to SDS-PAGE on 4–12% gradient gels (Invitrogen, Carlsbad, CA, USA) followed by transfer to polyvinylidene fluoride membranes (Invitrogen). Blots were probed using antibodies for DNMT1 (Abcam ab16632).

MDA-MB-231 = assay: NCI 60 cell line panel: MDA-MB-231; format: cell-based, human; conditions: Breast cancer, TP53 null/mutant
Description: as §1

DU-145 = assay: NCI 60 cell line panel: DU-145; format: cell-based, human; conditions: Prostate cancer, TP53 null/mutant
Description: as §1

TK-10 = assay: NCI 60 cell line panel: TK-10; format: cell-based, human; conditions: Renal cancer, TP53 null/mutant
Description: as §1

SK-MEL-2 = assay: NCI 60 cell line panel: SK-MEL-2; format: cell-based, human; conditions: Melanoma, TP53 null/mutant
Description: as §1

NCI 60 cell line panel = assay: NCI 60 cell line panel, allocation of cell lines by growth inhibition at 10 µM; format: cell-based, human
Description: as §1

NCI-H460 = assay: NCI 60 cell line panel: NCI-H460; format: cell-based, human; conditions: NSCL, TP53 wild type
Description: as §1

RPMI-8226 = assay: NCI 60 cell line panel: RPMI-8226; format: cell-based, human; conditions: Leukemia, TP53 null/mutant
Description: as §1

SF-539 = assay: NCI 60 cell line panel: SF-539; format: cell-based, human; conditions: CNS cancer, TP53 null/mutant
Description: as §1

HOP-92 = assay: NCI 60 cell line panel: HOP-92; format: cell-based, human; conditions: NSCL, TP53 null/mutant
Description: as §1

M14 = assay: NCI 60 cell line panel: M14; format: cell-based, human; conditions: Melanoma, TP53 null/mutant
Description: as §1

[2] = 55 cell lines tested for both compounds

`Nc1ncn([C@@H]2O[C@H](CO)[C@@H](O)C2(F)F)c(=O)n1` [NUC013, 5-aza-2′,2′-difluroro deoxycytidine] was tested, and the “Growth (%) at 10 µM” value (HS 578T) was 90.37%, the GI50 [1] was 3 µM and the “Growth (%) at 10 µM” value (HL-60) was 25.23%. For the same compound, the “Growth (%) at 10 µM” value (LOX IMVI) was 34.53%, the “Growth (%) at 10 µM” value (IGROV-1) was 56.77% and the “Growth (%) at 10 µM” value (UACC-257) was 77.54%. The “Growth (%) at 10 µM” value (RXF 393) was 44.97%, the “Growth (%) at 10 µM” value (OVCAR-4) was 94.88% and the “DNMT1 inhibition by western blot” value (DNMT1) was “comparable to decitabine”. The “Growth (%) at 10 µM” value (MDA-MB-231) was 79.98%, the “Growth (%) at 10 µM” value (DU-145) was 43.48% and the “Growth (%) at 10 µM” value (TK-10) was 91.13%. The “Growth (%) at 10 µM” value (SK-MEL-2) was 104.47%, the “Number of cell lines with growth inhibition at 10 µM >50%” value (NCI 60 cell line panel; [2]) was 24 and the “Number of cell lines with growth inhibition at 10 µM ≤50%” value (NCI 60 cell line panel; [2]) was 31. The “Number of cell lines with growth inhibition at 10 µM >50%” value (NCI 60 cell line panel; TP53 (Null/Mutant) cell lines) was 13, the “Number of cell lines with growth inhibition at 10 µM ≤50%” value (NCI 60 cell line panel; TP53 (Null/Mutant) cell lines) was 27 and the “Number of cell lines with growth inhibition at 10 µM >50%” value (NCI 60 cell line panel; TP53 (WT) cell lines) was 11. The “Number of cell lines with growth inhibition at 10 µM ≤50%” value (NCI 60 cell line panel; TP53 (WT) cell lines) was 4, the “Growth (%) at 10 µM” value (NCI-H460) was 9.34% and the “Growth (%) at 10 µM” value (RPMI-8226) was 39.24%. The “Growth (%) at 10 µM” value (SF-539) was 22.25%, the “Growth (%) at 10 µM” value (HOP-92) was 34.34% and the “Growth (%) at 10 µM” value (M14) was 15.55%.
